Source: the supplement of paper PMC10307832

Experiments:
Experiment in all cases: relative viability (nuclei count vs DMSO), 5 days (fraction); higher = more cells survive
NCI-H322M = system: NCI-H322M
Outline: (§1)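 Relative viability divides the nuclei count in treated wells by that in vehicle wells. Lung cancer cell lines were seeded in 1536-well plates, dosed by pin tool the next day, and fixed and stained after 5 days in one step with final 0.05% Triton X-100, 1% formaldehyde and 1 ug/ml Hoechst. Dosing was a single drug or a fixed anchor-drug dose plus five library-drug doses (not always all listed) in √10 steps, and values are medians of duplicate plates imaged at 4×.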

EPLC-272H = system: EPLC-272H
Outline: as §1

NCI-H2347 = system: NCI-H2347
Outline: as §1

NCI-H1563 = system: NCI-H1563
Outline: as §1

NCI-H1993 = system: NCI-H1993
Outline: as §1

LXF-289 = system: LXF-289
Outline: as §1

SW 1573 = system: SW 1573
Outline: as §1

H3255 = system: H3255
Outline: as §1

NCI-H2126 = system: NCI-H2126
Outline: as §1

NCI-H647 = system: NCI-H647
Outline: as §1

HOP-62 = system: HOP-62
Outline: as §1

EMC-BAC-2 = system: EMC-BAC-2
Outline: as §1

NCI-H1650 = system: NCI-H1650
Outline: as §1

NCI-H1915 = system: NCI-H1915
Outline: as §1

NCI-H661 = system: NCI-H661
Outline: as §1

NCI-H2023 = system: NCI-H2023
Outline: as §1

SK-LU-1 = system: SK-LU-1
Outline: as §1

NCI-H2085 = system: NCI-H2085
Outline: as §1

NCI-H2342 = system: NCI-H2342
Outline: as §1

NCI-H2009 = system: NCI-H2009
Outline: as §1

LCLC-97TM1 = system: LCLC-97TM1
Outline: as §1

PC-14 = system: PC-14
Outline: as §1

NC(=O)Nc1cc(-c2cccc(F)c2)sc1C(=O)N[C@H]1CCCNC1 [AZD7762] + Nc1nc2[nH]cc(CCc3ccc(C(=O)N[C@@H](CCC(=O)O)C(=O)O)cc3)c2c(=O)[nH]1 [Pemetrexed] (partner 0.2 µM)
relative viability (NCI-H322M; first compound 0.01 µM): 0.595
relative viability (NCI-H322M; first compound 0.03162 µM): 0.617
relative viability (NCI-H322M; first compound 0.1 µM): 0.571
relative viability (NCI-H322M; first compound 0.3162 µM): 0.542
relative viability (NCI-H322M; first compound 1 µM): 0.379
relative viability (EPLC-272H; first compound 0.01 µM): 0.321
relative viability (EPLC-272H; first compound 0.03162 µM): 0.214
relative viability (EPLC-272H; first compound 0.1 µM): 0.174
relative viability (EPLC-272H; first compound 0.3162 µM): 0.12
relative viability (EPLC-272H; first compound 1 µM): 0.0715
relative viability (NCI-H2347; first compound 0.01 µM): 0.448
relative viability (NCI-H2347; first compound 0.03162 µM): 0.395
relative viability (NCI-H2347; first compound 0.1 µM): 0.455
relative viability (NCI-H2347; first compound 0.3162 µM): 0.403
relative viability (NCI-H2347; first compound 1 µM): 0.329
relative viability (NCI-H1563; first compound 0.01 µM): 0.853
relative viability (NCI-H1563; first compound 0.03162 µM): 0.997
relative viability (NCI-H1563; first compound 0.1 µM): 0.84
relative viability (NCI-H1563; first compound 0.3162 µM): 0.693
relative viability (NCI-H1563; first compound 1 µM): 0.765
relative viability (NCI-H1993; first compound 0.01 µM): 0.559
relative viability (NCI-H1993; first compound 0.03162 µM): 0.487
relative viability (NCI-H1993; first compound 0.1 µM): 0.602
relative viability (NCI-H1993; first compound 0.3162 µM): 0.586
relative viability (NCI-H1993; first compound 1 µM): 0.578
relative viability (LXF-289; first compound 0.01 µM): 0.817
relative viability (LXF-289; first compound 0.03162 µM): 0.864
relative viability (LXF-289; first compound 0.1 µM): 0.949
relative viability (LXF-289; first compound 0.3162 µM): 0.803
relative viability (LXF-289; first compound 1 µM): 0.626
relative viability (SW 1573; first compound 0.01 µM): 0.796
relative viability (SW 1573; first compound 0.03162 µM): 0.778
relative viability (SW 1573; first compound 0.1 µM): 0.717
relative viability (SW 1573; first compound 0.3162 µM): 0.604
relative viability (SW 1573; first compound 1 µM): 0.272
relative viability (H3255; first compound 0.01 µM): 0.549
relative viability (H3255; first compound 0.03162 µM): 0.61
relative viability (H3255; first compound 0.1 µM): 0.573
relative viability (H3255; first compound 0.3162 µM): 0.531
relative viability (H3255; first compound 1 µM): 0.477
relative viability (NCI-H2126; first compound 0.01 µM): 0.659
relative viability (NCI-H2126; first compound 0.03162 µM): 0.646
relative viability (NCI-H2126; first compound 0.1 µM): 0.553
relative viability (NCI-H2126; first compound 0.3162 µM): 0.576
relative viability (NCI-H2126; first compound 1 µM): 0.365
relative viability (NCI-H647; first compound 0.01 µM): 0.146
relative viability (NCI-H647; first compound 0.03162 µM): 0.128
relative viability (NCI-H647; first compound 0.1 µM): 0.108
relative viability (NCI-H647; first compound 0.3162 µM): 0.0887
relative viability (NCI-H647; first compound 1 µM): 0.0641
relative viability (HOP-62; first compound 0.01 µM): 0.359
relative viability (HOP-62; first compound 0.03162 µM): 0.318
relative viability (HOP-62; first compound 0.1 µM): 0.264
relative viability (HOP-62; first compound 0.3162 µM): 0.248
relative viability (HOP-62; first compound 1 µM): 0.208
relative viability (EMC-BAC-2; first compound 0.01 µM): 0.457
relative viability (EMC-BAC-2; first compound 0.03162 µM): 0.397
relative viability (EMC-BAC-2; first compound 0.1 µM): 0.405
relative viability (EMC-BAC-2; first compound 0.3162 µM): 0.35
relative viability (EMC-BAC-2; first compound 1 µM): 0.387
relative viability (NCI-H1650; first compound 0.01 µM): 0.333
relative viability (NCI-H1650; first compound 0.03162 µM): 0.331
relative viability (NCI-H1650; first compound 0.1 µM): 0.296
relative viability (NCI-H1650; first compound 0.3162 µM): 0.252
relative viability (NCI-H1650; first compound 1 µM): 0.19
relative viability (NCI-H1915; first compound 0.01 µM): 0.434
relative viability (NCI-H1915; first compound 0.03162 µM): 0.412
relative viability (NCI-H1915; first compound 0.1 µM): 0.346
relative viability (NCI-H1915; first compound 0.3162 µM): 0.264
relative viability (NCI-H1915; first compound 1 µM): 0.217
relative viability (NCI-H661; first compound 0.01 µM): 0.935
relative viability (NCI-H661; first compound 0.03162 µM): 0.739
relative viability (NCI-H661; first compound 0.1 µM): 0.597
relative viability (NCI-H661; first compound 0.3162 µM): 0.49
relative viability (NCI-H661; first compound 1 µM): 0.426
relative viability (NCI-H2023; first compound 0.01 µM): 0.211
relative viability (NCI-H2023; first compound 0.03162 µM): 0.156
relative viability (NCI-H2023; first compound 0.1 µM): 0.112
relative viability (NCI-H2023; first compound 0.3162 µM): 0.124
relative viability (NCI-H2023; first compound 1 µM): 0.0879
relative viability (SK-LU-1; first compound 0.01 µM): 1.14
relative viability (SK-LU-1; first compound 0.03162 µM): 0.776
relative viability (SK-LU-1; first compound 0.1 µM): 0.698
relative viability (SK-LU-1; first compound 0.3162 µM): 0.299
relative viability (SK-LU-1; first compound 1 µM): 0.238
relative viability (NCI-H2085; first compound 0.01 µM): 0.932
relative viability (NCI-H2085; first compound 0.03162 µM): 0.918
relative viability (NCI-H2085; first compound 0.1 µM): 1
relative viability (NCI-H2085; first compound 0.3162 µM): 0.795
relative viability (NCI-H2085; first compound 1 µM): 0.673
relative viability (NCI-H2342; first compound 0.01 µM): 0.784
relative viability (NCI-H2342; first compound 0.03162 µM): 0.797
relative viability (NCI-H2342; first compound 0.1 µM): 0.78
relative viability (NCI-H2342; first compound 0.3162 µM): 0.755
relative viability (NCI-H2342; first compound 1 µM): 0.669
relative viability (NCI-H2009; first compound 0.01 µM): 1
relative viability (NCI-H2009; first compound 0.03162 µM): 1.02
relative viability (NCI-H2009; first compound 0.1 µM): 1.03
relative viability (NCI-H2009; first compound 0.3162 µM): 0.888
relative viability (NCI-H2009; first compound 1 µM): 0.783
relative viability (LCLC-97TM1; first compound 0.01 µM): 0.187
relative viability (LCLC-97TM1; first compound 0.03162 µM): 0.165
relative viability (LCLC-97TM1; first compound 0.1 µM): 0.17
relative viability (LCLC-97TM1; first compound 0.3162 µM): 0.139
relative viability (LCLC-97TM1; first compound 1 µM): 0.146
relative viability (PC-14; first compound 0.01 µM): 0.133
relative viability (PC-14; first compound 0.03162 µM): 0.0943
relative viability (PC-14; first compound 0.1 µM): 0.0891
relative viability (PC-14; first compound 0.3162 µM): 0.0706
relative viability (PC-14; first compound 1 µM): 0.0517
